From US20240336574A1 (LATIGO BIOTHERAPEUTICS, INC., priority 2021, published 2024)
Like-named read-outs stand apart in the source and are kept apart here.

Biological target: T1, recombinant human NaV1.8 stably transfected HEK cells (Homo sapiens, UniProt Q9Y5Y9)
T1 construct: expressed in transfected cells; host or cells: HEK cells, stably transfected
Test: Compound profiling on NaV1.8, human NaV1.8 cell line, SyncroPatch384PE automated patch clamp assay (Example 102, first set of compounds, Table 16)
Format: cell-based
Details: human NaV1.8 HEK cells, Table 16 (first set of compounds)
Procedure, shortened: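 IC50s come from two read-outs: resting-state block (P1, 10 mV step from −120 mV) and inactivated-state block (P2, after 10 s at −40 mV), scaled between DMSO and 250 μM tetracaine. Compounds (20–0.001 μM final, 1:3 steps) were applied for 5 min, 15 s sweeps. Cells kept at 30 °C the day before.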

[1] = inactivated state block (P2 measurement), read-out: P2IC50
[2] = resting state block (P1 measurement), read-out: P1IC50

T1 sequence (Q9Y5Y9 whole entry): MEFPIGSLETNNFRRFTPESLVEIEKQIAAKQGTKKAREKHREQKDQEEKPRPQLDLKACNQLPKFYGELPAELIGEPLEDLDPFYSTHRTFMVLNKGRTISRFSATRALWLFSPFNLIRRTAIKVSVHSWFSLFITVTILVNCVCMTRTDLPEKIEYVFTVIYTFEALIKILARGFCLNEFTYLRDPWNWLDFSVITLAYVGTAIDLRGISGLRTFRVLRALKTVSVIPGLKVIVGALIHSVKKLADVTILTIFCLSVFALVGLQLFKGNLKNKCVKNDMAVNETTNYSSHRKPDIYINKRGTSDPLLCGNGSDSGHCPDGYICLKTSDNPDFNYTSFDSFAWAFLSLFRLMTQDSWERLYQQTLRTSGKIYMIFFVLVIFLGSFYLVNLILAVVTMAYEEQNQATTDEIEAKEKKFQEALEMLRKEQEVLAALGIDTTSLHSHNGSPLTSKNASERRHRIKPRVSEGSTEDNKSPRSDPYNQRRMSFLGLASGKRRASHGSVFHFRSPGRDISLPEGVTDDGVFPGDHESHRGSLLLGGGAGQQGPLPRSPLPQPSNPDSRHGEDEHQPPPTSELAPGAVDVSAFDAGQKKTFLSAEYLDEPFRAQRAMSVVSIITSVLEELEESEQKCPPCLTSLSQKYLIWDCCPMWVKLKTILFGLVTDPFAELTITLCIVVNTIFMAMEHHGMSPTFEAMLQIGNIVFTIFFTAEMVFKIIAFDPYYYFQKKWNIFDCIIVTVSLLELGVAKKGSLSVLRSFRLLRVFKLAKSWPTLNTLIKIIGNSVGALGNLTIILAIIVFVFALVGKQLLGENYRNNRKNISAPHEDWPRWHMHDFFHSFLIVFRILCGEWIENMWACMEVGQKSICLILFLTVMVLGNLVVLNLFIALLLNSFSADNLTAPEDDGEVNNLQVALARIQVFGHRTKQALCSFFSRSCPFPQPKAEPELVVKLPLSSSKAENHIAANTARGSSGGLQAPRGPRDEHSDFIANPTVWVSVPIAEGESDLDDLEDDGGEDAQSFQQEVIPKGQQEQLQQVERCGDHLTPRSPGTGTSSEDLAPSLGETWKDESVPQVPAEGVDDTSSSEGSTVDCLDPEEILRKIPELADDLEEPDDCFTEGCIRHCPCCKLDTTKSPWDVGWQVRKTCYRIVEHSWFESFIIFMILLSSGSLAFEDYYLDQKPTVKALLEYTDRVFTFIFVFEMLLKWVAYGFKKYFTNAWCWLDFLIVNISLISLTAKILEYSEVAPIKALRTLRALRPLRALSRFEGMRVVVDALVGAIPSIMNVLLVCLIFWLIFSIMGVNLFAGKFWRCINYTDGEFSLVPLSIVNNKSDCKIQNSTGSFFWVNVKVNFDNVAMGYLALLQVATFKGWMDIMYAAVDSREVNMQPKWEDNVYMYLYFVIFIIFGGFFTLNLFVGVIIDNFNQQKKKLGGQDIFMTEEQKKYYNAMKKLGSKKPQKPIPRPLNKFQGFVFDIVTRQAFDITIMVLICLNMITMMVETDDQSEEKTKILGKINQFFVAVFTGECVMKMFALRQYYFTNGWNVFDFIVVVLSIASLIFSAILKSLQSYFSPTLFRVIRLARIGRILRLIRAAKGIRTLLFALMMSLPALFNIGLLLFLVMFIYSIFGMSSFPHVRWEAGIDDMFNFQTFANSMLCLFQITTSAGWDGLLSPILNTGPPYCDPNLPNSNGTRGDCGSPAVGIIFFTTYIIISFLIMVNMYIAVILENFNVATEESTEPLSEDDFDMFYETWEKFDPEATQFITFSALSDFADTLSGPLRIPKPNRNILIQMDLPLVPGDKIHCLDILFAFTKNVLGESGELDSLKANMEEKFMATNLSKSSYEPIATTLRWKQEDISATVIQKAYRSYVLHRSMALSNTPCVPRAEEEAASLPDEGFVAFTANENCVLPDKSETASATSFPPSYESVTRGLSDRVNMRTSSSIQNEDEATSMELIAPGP

SMILES	IC50 [1] [nM]	IC50 [2] [nM]
COc1c(Oc2nnc(C(F)(F)F)c(C)c2C(=O)Nc2cccc(S(C)(=N)=O)c2)ccc(F)c1F (single isomer, unassigned) [Compound 1473, 3-(3,4-difluoro-2-methoxy-phenoxy)-5-methyl-N-[3-(methylsulfonimidoyl)phenyl]-6-(trifluoromethyl)pyridazine-4-carboxamide]	≤ 20	≤ 20
COc1c(Oc2ncc(Br)cc2C(=O)Nc2ccnnc2)ccc(F)c1F [Compound 1683]	≤ 20	20 to 40
COc1cc(F)ccc1Oc1ncc(C(F)(F)F)cc1C(=O)Nc1cccc(S(C)(=O)=O)c1 [Compound 1575]	≤ 20	≤ 20
COc1cc(C#N)ccc1Oc1nnc(-c2ccc(C)cc2)c(C)c1C(=O)Nc1cccc([S@@](C)(=N)=O)c1 [Compound 1530, 3-(4-cyano-2-methoxyphenoxy)-N-{3-[(S)-imino(methyl)oxo-λ^6-sulfanyl]phenyl}-5-methyl-6-(4-methylphenyl)pyridazine-4-carboxamide]	40 to 200	40 to 200
CCc1c(C(F)(F)F)nnc(Oc2ccc(F)cc2OC)c1C(=O)Nc1cccc([S@@](C)(=N)=O)c1 [Compound 1518, (S)-5-ethyl-3-(4-fluoro-2-methoxyphenoxy)-N-(3-(S-methylsulfonimidoyl)phenyl)-6-(trifluoromethyl)pyridazine-4-carboxamide]	≤ 20	≤ 20
COc1c(Oc2nccc(C(F)(F)F)c2C(=O)Nc2cccc(C(N)=O)c2)ccc(F)c1F [Compound 1652]	20 to 40	20 to 40
N#Cc1cc(F)ccc1Oc1ncc(C(F)(F)F)cc1C(=O)Nc1cccc(C(N)=O)c1 [Compound 1692]	40 to 200	40 to 200
Cc1c(C(F)(F)F)nnc(Oc2ccc(OC(F)(F)F)c(F)c2F)c1C(=O)Nc1cccc(S(C)(=O)=O)c1 [Compound 1419]	≤ 20	≤ 20
CS(=O)(=O)c1cccc(NC(=O)c2cc(C(F)(F)F)cnc2Oc2cccc3c2OCCC3)c1 [Compound 1626]	200 to 500	200 to 500
Cc1c(C(F)(F)F)nnc(Oc2ccc(Cl)cc2F)c1C(=O)Nc1ccc(C(N)=O)cc1 [Compound 1404]	40 to 200	40 to 200
COc1nc(C)c(Oc2ncc(C(F)(F)F)cc2C(=O)Nc2cccc(S(C)(=N)=O)c2)cc1F (stereo not shown) [Compound 1639]	200 to 500	200 to 500
COc1cc(C#N)ccc1Oc1nnc(C(F)(F)F)c(C)c1C(=O)Nc1ccc(C(N)=O)nc1 [Compound 1539, N-(6-carbamoyl-3-pyridyl)-3-(4-cyano-2-methoxy-phenoxy)-5-methyl-6-(trifluoromethyl)pyridazine-4-carboxamide]	20 to 40	40 to 200
COc1cc(C#N)ccc1Oc1nnc(-c2ccccc2F)c(C)c1C(=O)Nc1cccc([S@](C)(=N)=O)c1 [Compound 1537, 3-(4-cyano-2-methoxyphenoxy)-6-(2-fluorophenyl)-N-{3-[(R)-imino(methyl)oxo-λ^6-sulfanyl]phenyl}-5-methylpyridazine-4-carboxamide]	20 to 40	20 to 40
CS(=O)(=O)c1cccc(NC(=O)c2cc(C(F)(F)F)cnc2Oc2ccc3c(c2)NC(=O)C3)c1 [Compound 1601]	200 to 500	200 to 500
COc1cc(C#N)ccc1Oc1ncc(C(F)(F)F)cc1C(=O)Nc1ccc[n+]([O-])c1 [Compound 1702]	40 to 200	40 to 200
Cc1c(C(F)(F)F)nnc(Oc2ccc(OC(C)C)c(F)c2F)c1C(=O)Nc1cccc(S(C)(=N)=O)c1 (stereo not shown) [Compound 1501, 3-[2,3-difluoro-4-(propan-2-yloxy)phenoxy]-N-{3-[imino(methyl)oxo-λ^6-sulfanyl]phenyl}-5-methyl-6-(trifluoromethyl)pyridazine-4-carboxamide]	≤ 20	≤ 20
COc1cc(C#N)ccc1Oc1nnc(C(F)(F)F)c(C)c1C(=O)Nc1cccc(C(=O)N2CC(C#N)C2)c1 [Compound 1442, N-[3-(3-cyanoazetidine-1-carbonyl)phenyl]-3-(4-cyano-2-methoxy-phenoxy)-5-methyl-6-(trifluoromethyl)pyridazine-4-carboxamide]	200 to 500	200 to 500
COc1c(Oc2ncc(C#N)cc2C(=O)Nc2cccc(C(N)=O)c2)ccc(F)c1F [Compound 1724, N-(3-carbamoylphenyl)-5-cyano-2-(3,4-difluoro-2-methoxy-phenoxy)pyridine-3-carboxamide]	40 to 200	40 to 200
Cc1c(C(F)(F)F)nnc(Oc2ccc(C#N)cc2)c1C(=O)Nc1cccc(S(C)(=N)=O)c1 (stereo not shown) [Compound 21]	40 to 200	20 to 40
COc1cc(C#N)ccc1Oc1nnc(C(F)(F)F)c(C)c1C(=O)Nc1ccc(C(N)=O)cc1 [Compound 1405]	≤ 20	≤ 20
CCOc1ncc(C(F)(F)F)cc1C(=O)Nc1cccc(S(C)(=O)=O)c1 [Compound 1600]	200 to 500	200 to 500

SMILES	IC50 [1] [nM]	IC50 [2] [nM]
Cc1nc(F)ccc1Oc1ncc(C(F)(F)F)cc1C(=O)Nc1cccc([S@](C)(=N)=O)c1 (single isomer, unassigned) [Compound 1593]	≤ 20	≤ 20
CS(=O)(=O)c1cccc(NC(=O)c2cc(C(F)(F)F)cnc2Oc2ccn3ccnc3c2)c1 [Compound 1597]	200 to 500	200 to 500
COc1c(Oc2ncc(Br)cc2C(=O)Nc2cccc(S(C)(=N)=O)c2)ccc(F)c1F (stereo not shown) [Compound 1567, 5-bromo-2-(3,4-difluoro-2-methoxy-phenoxy)-N-[3-(methylsulfonimidoyl)phenyl]pyridine-3-carboxamide]	≤ 20	≤ 20
COc1cc(Cl)ccc1Oc1nnc(C(F)(F)F)c(C)c1C(=O)Nc1cccc(S(C)(=N)=O)c1 (single isomer, unassigned) [Compound 1481, 3-(4-chloro-2-methoxyphenoxy)-5-methyl-N-(3-(S-methylsulfonimidoyl)phenyl)-6-(trifluoromethyl)pyridazine-4-carboxamide]	≤ 20	≤ 20
Cc1cc(F)ccc1Oc1nnc(C(F)(F)F)c(C)c1C(=O)Nc1cccc(C(N)=O)c1 [Compound 1406]	40 to 200	40 to 200
CC(C)Oc1ccc(Oc2ncc(C(F)(F)F)cc2C(=O)Nc2cccc(S(C)(=N)=O)c2)c(F)c1 (stereo not shown) [Compound 1706]	200 to 500	200 to 500
COC(=O)C12CC(NC(=O)c3cc(C(F)(F)F)cnc3Oc3ccc(F)c(F)c3OC)(C1)C2 [Compound 1679]	200 to 500	200 to 500
CCOc1ccc(Oc2ncc(C(F)(F)F)cc2C(=O)Nc2cccc(S(C)(=N)=O)c2)cc1 (stereo not shown) [Compound 1609]	40 to 200	40 to 200
CC(=O)N=[S@](C)(=O)c1cccc(NC(=O)c2cc(C(F)(F)F)cnc2Oc2ccc(F)cc2C)c1 [Compound 1716, N-[3-(N-acetyl-S-methyl-sulfonimidoyl)phenyl]-2-(4-fluoro-2-methyl-phenoxy)-5-(trifluoromethyl)pyridine-3-carboxamide]	≤ 20	≤ 20
Cn1cc(Oc2ncc(C(F)(F)F)cc2C(=O)Nc2cccc(S(C)(=O)=O)c2)cn1 [Compound 1610]	200 to 500	200 to 500
CS(=O)(=O)c1cccc(NC(=O)c2cc(C(F)(F)F)cnc2Oc2ccc(OC(F)F)cc2)c1 [Compound 1563, 2-[4-(difluoromethoxy)phenoxy]-N-(3-methylsulfonylphenyl)-5-(trifluoromethyl)pyridine-3-carboxamide]	20 to 40	20 to 40
COc1cc(F)ccc1Oc1nnc(C(F)(F)F)c(C)c1C(=O)Nc1ccc(C(N)=O)cc1 [Compound 1415]	≤ 20	≤ 20
CS(=N)(=O)c1cccc(NC(=O)c2cc(C(F)(F)F)cnc2Oc2ccc(C(F)F)nc2)c1 (stereo not shown) [Compound 1674]	200 to 500	200 to 500
Cc1nc(F)ccc1Oc1ncc(C(F)(F)F)cc1C(=O)Nc1cccc(S(C)(=N)=O)c1 (stereo not shown) [Compound 1589]	40 to 200	40 to 200
COc1cc(C#N)ccc1Oc1nnc(C(F)(F)F)c(C)c1C(=O)Nc1cccc(S(C)(=N)=O)c1 (stereo not shown) [Compound 25]	≤ 20	≤ 20
COc1cc(C#N)cc(Oc2ncc(C(F)(F)F)cc2C(=O)Nc2cccc(S(C)(=N)=O)c2)c1 (stereo not shown) [Compound 1592]	200 to 500	200 to 500
Cc1cc(F)ccc1Oc1nnc(C(F)(F)F)c(NC2CC2)c1C(=O)Nc1cccc([S@@](C)(=N)=O)c1 [Compound 1522, (S)-5-(cyclopropylamino)-3-(4-fluoro-2-methylphenoxy)-N-(3-(S-methylsulfonimidoyl)phenyl)-6-(trifluoromethyl)pyridazine-4-carboxamide]	200 to 500	200 to 500
CO/N=C(\C)c1cccc(NC(=O)c2c(Oc3ccc(C#N)cc3OC)nnc(C(F)(F)F)c2C)c1 [Compound 1545, 3-(4-cyano-2-methoxy-phenoxy)-N-[3-[(E)-N-methoxy-C-methyl-carbonimidoyl]phenyl]-5-methyl-6-(trifluoromethyl)pyridazine-4-carboxamide]	200 to 500	200 to 500
Cc1cc(F)ccc1Oc1nnc(N2CC(F)C2)c(C)c1C(=O)Nc1cccc(S(C)(=N)=O)c1 (stereo not shown) [Compound 1431, 6-(3-Fluoroazetidin-1-yl)-3-(4-fluoro-2-methyl-phenoxy)-5-methyl-N-[3-(methylsulfonimidoyl)phenyl]pyridazine-4-carboxamide]	200 to 500	200 to 500
Cc1c(C(F)(F)F)nnc(Oc2c(F)cc(OC(F)(F)F)cc2F)c1C(=O)Nc1cccc(S(C)(=N)=O)c1 (stereo not shown) [Compound 1514, 3-[2,6-difluoro-4-(trifluoromethoxy)phenoxy]-N-{3-[imino(methyl)oxo-λ^6-sulfanyl]phenyl}-5-methyl-6-(trifluoromethyl)pyridazine-4-carboxamide]	40 to 200	40 to 200
